Patent US9408845B2, “Formulations containing pyridazine compounds” (Northwestern University, priority 2006, dated 2016)
Entries after “also recorded” stand apart in the source; their conditions may differ. Where two headings read alike, the source gives them in different places.

How the values were obtained:
[1] = tested on: nitric oxide (NO) production in BV-2 microglial cells; experiment: LPS-stimulated accumulation of nitrite (NO metabolite) in BV-2 cells, Griess assay; assay type: cell-based, mouse; conditions: for IC50: read-out: NO, concentration required for 50% inhibition, LPS-stimulated BV-2 cells, 16 hrs; for inhibition of LPS-stimulated accumulation of the NO metabolite, nitrite / selectivity (inhibits IL-1β but not production of NO, iNOS, COX-2): BV-2 cells; for inhibition of LPS-stimulated accumulation of the NO metabolite, nitrite: concentrations up to 33 μM; for selectivity (inhibits IL-1β but not production of NO, iNOS, COX-2): same concentration range
Procedure: (§2) Glia cell-based assays of the concentration-dependent activity of the compounds were done as previously described (Hu T, Ralay Ranaivo et al., Current Alzheimer's Research 2005, 2:197-205; Mirzoeva. S, et al., J Med Chem 2002, 45:563-566; Ralay Ranaivo H, et al., 3 Neurosci 2006, 26:662-670). BV-2 mouse microglial cells were cultured for one day in multiwell plates and then treated in serum-free media for 16 his with either control buffer or the standard glial activating stimulus lipopolysaccharide (LPS, front Salmonella typhimurium; 100 ng/ml) in the presence of diluent or different concentrations of compounds. The accumulation of nitrite, the stable metabolite of nitric oxide (NO), was measured in V-2 conditioned media by the Griess assay as previously described (Hu W, Ralay Ranaivo et al., Current Alzheimer's Research 2005, 2:197-205; Mirzoeva S, et al, J Med Chem 2002, 45:563-566; Mirzoeva 5, et al., Brain Res 1999, 844:126434). Levels of IL-1β, TNFα, MCP-1 and IL-1β in cell lysates were measured by the Mesoscale Discovery system as per the manufacturer's instructions. Cell lysates were analyzed by Western blots as described (Mirzoeva 5, et al., J. Med Chem 2002, 45:563-566; Ralay Ranaivo H, et al J Neurosci 2006, 26:662-670) to determine the levels of inducible nitric oxide synthase (iNOS) and cyclooxygenase-2 (COX-2).

[2] = tested on: iNOS production in activated BV-2 cells; experiment: LPS-induced iNOS levels in activated BV-2 cells, Western blot; assay type: cell-based, mouse
Procedure: as §2

[3] = tested on: LPS-induced IL-1β production in BV-2 microglia cells; experiment: LPS-induced IL-1β production in BV-2 microglial cells; conditions: for inhibition of LPS-induced increases of IL-1β: BV2 microglial cell line, concentration dependence; for IC50: read-out: IL-1β, concentration required for 50% inhibition
Procedure: as §2

[4] = tested on: COX-2 production in activated BV-2 cells; experiment: LPS-induced COX-2 levels in activated BV-2 cells, Western blot; assay type: cell-based, mouse
Procedure: as §2

[5] = tested on: human Aβ infusion mouse model; experiment: Human Aβ infusion mouse model, Y maze behavioral assay; assay type: in vivo; conditions: 1.25, 2.5, 5, and 10 mg/kg
Source text: (§1) Once per day treatment will begin at day 21 after start of Aβ ICV infusion and continue for 14 days. Beginning at day 50 after start of Aβ ICV infusion, the Y maze test of spontaneous alternation will be used to evaluate hippocampus dependent spatial learning as described previously (Craf et al., J Mol. Neurosci. 24:115-122, 2004a). Briefly, each mouse will be placed in the “start” arm and then released to choose one of the two other arms. The mouse will be blocked from exiting the chosen arm for 30 s then they will be placed back in the start arm and released again to choose one of the two other arms. If the second choice is different from the first one, the mouse will be scored as alternating. Mice will be tested for 10 days with one trial per day, and a mean percent alternation will be calculated for each mouse. […] The brain will be removed and longitudinally bisected as described previously (Craft et al., Neurobiolo Aging 25:12834292, 2004b). […] The hippocampus will be dissected from the left half of the brain and snap-frozen for subsequent biochemical evaluation.

[6] = tested on: human Aβ infusion mouse model; experiment: Human Aβ infusion mouse model, hippocampal neuroinflammation and synaptic biochemical endpoints; assay type: in vivo; conditions: hippocampus, Aβ-infused mice, oral compound
Procedure: The study design and treatment paradigm for intracerebroventricular (ICV) infusion of human oligomerie Aβ1-42 into the mouse will be as described previously (Craft et al., Neurobiol Aging 25:1283-1292, 2004b), except that compound administration will be by mouth. Female C57Bl/6 mice (Harlan) weighing 20-25 g (3-4 months old) will be housed in a pathogen free facility under an approximate 12 h/12 h dark and light cycle and they will have access ad libitum to food and water.
as §1
S100B levels in hippocampal supernatants will be measured by a empium-based ELISA essentially as previously described (Van Eldik and Griffin, Biochem Biophys Acta 1223:398-403, 1994). Synaptophysin levels in hippocampal supernatants will be quantified by ELISA following the procedure described previously (Craft at al, 20041, supra). PSD-95 levels will be determined by Western blots using anti-PSD-95 antibodies (1:100,000 dilution; Upstate Biotechnology) as described (Craft et al., 2004b).
It was previously shown that Aβ-induced neuroinflammation is an early event associated with the onset and progression of pathophysiology, and can be suppressed by an inhibitor of glial activation. Female C57Bl/6 mice (Harlan) weighing […] (3-4 months old) were housed in a pathogen free facility under an approximate 12 h/12 h dark and light cycle and had access ad libitum to food and water. All animal procedures were approved by the Northwestern Animal Care and Use Committee.

[7] = tested on: QT interval in Lead II electrocardiogram, anesthetized guinea pigs; experiment: Cardiac QT interval prolongation assay in anesthetized guinea pigs; conditions: 0.3 mg/kg iv, positive control
Procedure: The QT interval studies are performed by evaluating compounds for effects on QT interval in Lead II electrocardiograms measured in anesthetized guinea pigs (Hirohashi et al., 1991, Arzneim.-Forsch./Drug Res 41:9-18), one of the species recommended in the FDA white paper. Vehicle or compound is administered orally at 15 mg/kg (dosing volume of 10 ml/kg) to groups of male guinea pigs (weighing 330-350 g), with 5 animals per group. […] Heart rate, arterial blood pressure, and QT intervals are measured at baseline, and at 15, 30, 45, and 60 min after compound administration. Sotalol administered iv at 0.3 mg/kg serves as the positive control compound. The QT intervals are corrected for changes in heart rate using both Bazetes and Fridericia's formulae. Any increase in QT interval values over baseline values exceeding the upper 95% confidence limit of the mean changes at the corresponding time point in the vehicle-treated control group for two consecutive observation times indicates significant QT interval prolongation in the individually treated animals.
The QT intervals (QTc) were corrected for changes in heart rate using both Bazett's and Fridericia's formulae.
The test substance was dissolved in 2% Tween 80 and administered by oral administration. The substance was treated at 15 mg/kg with a dosing volume of 10 ml/kg. Duncan Hartley derived guinea pigs provided by MDS Pharma Services—Taiwan Ltd were used. Sotalol was obtained from Sigma, USA.
Groups of guinea pigs (weighing 330-350 g) with 5 animals each were employed. The animals were anesthetized with urethane (1500 mg/kg, IV bolus injection in a volume of 5 ml/kg) and breathed spontaneously. Lead II ECG was obtained with subdermal needle electrodes and ECG signal conditioner. Heart rate was measured with a pulse rate tachometer. The carotid artery was cannulated with a catheter that was connected to a pressure transducer and a pressure processor for measurements of arterial blood pressure (BP). […] QTC intervals were obtained by correction for heart rate changes using Bazett's and Fridericia's formulae. Increase in QTc interval in individual treated guinea pigs that lies outside the upper limit of 95% confidence limits (mean±SD) of the changes for the vehicle-treated control at corresponding time points for two consecutive times is considered significant.

[8] = LPS-stimulated BV-2 cells, 16 hrs

Molecule	suppression of LPS-induced production of iNOS [2]	inhibition of LPS-stimulated accumulation of the NO metabolite, nitrite [1]	inhibition of LPS-induced increases of IL-1β [3]	suppression of LPS-induced production of COX-2 [4]	selectivity (inhibits IL-1β but not production of NO, iNOS, COX-2) [1]	also measured
4-Methyl-6-phenyl-3-(4-pyridin-2-yl)piperazin-1-yl)pyridazine [Compound 8]						IC50 [1]: > 25 µM
4-Methyl-6-phenyl-3-(4-pyridin-4-yl)piperazin-1-yl)pyridazine [Compound 9]						IC50 [1]: > 25 µM
4-methyl-6-phenyl-3-(4-pyrimidin-2-ylpiperazin-1-yl)pyridazine [MW01-2-151SRM]	does not suppress	not inhibited	Concentration dependent inhibition	does not suppress		
4-pyridyl-6-phenyl-3-(4-pyrimidin-2-ylpiperazin-1-yl)pyridazine [MW01-6-189WH]	does not suppress	not inhibited	Concentration dependent inhibition	does not suppress		
c1ccc(Cc2cc(-c3ccccc3)nnc2N2CCN(c3ncccn3)CC2)cc1 [Compound 2]						IC50 [1]: > 25 µM; IC50 [3, 8]: 5.3 ± 0.6 µM
CC(C)Cc1cc(-c2ccccc2)nnc1N1CCN(c2ncccn2)CC1 [Compound 4]						IC50 [1]: 22 ± 3 µM; IC50 [3, 8]: 6.1 ± 2.5 µM
Cc1cc(-c2ccccc2)nnc1N1CCN(c2cnccn2)CC1 [Compound 7]						IC50 [3, 8]: 46.1 ± 23.3 µM
Cc1cc(-c2ccccc2)nnc1N1CCN(C2CCCCC2)CC1 [Compound 10, 3-(4-cyclohexylpiperazin-1-yl)-4-methyl-6-phenylpyridazine]						IC50 ([3]; Mus musculus, BV-2, 16 h): 31.4 ± 4.9 µM
Cc1cc(-c2ccccc2)nnc1N1CCN(C)CC1 [Compound 11, 4-Methyl-3-(4-methylpiperazin-1-yl)-6-phenylpyridazine]						IC50 ([3]; Mus musculus, BV-2, 16 h): 48.9 ± 23.2 µM
Clc1cc(-c2ccccc2)nnc1N1CCN(c2ncccn2)CC1 [MW01-6-127WH, 4-chloro-6-phenyl-3-(4-pyrimidin-2-ylpiperazin-1-yl)pyridazine]						IC50 ([1]; Mus musculus): 19 ± 8 µM; IC50 ([3]; Mus musculus, BV-2, 16 h): 9.5 ± 4 µM
Cc1cc(-c2ccccc2)c(N2CCN(c3ncccn3)CC2)nn1 [MW01-7-057WH, 6-methyl-4-phenyl-3-(4-pyrimidin-2-ylpiperazin-1-yl)pyridazine]	does not suppress	not inhibited	Concentration dependent inhibition	does not suppress	selective	prevention of Y-maze behavioral deficit [5]: significantly effective; loss of PSD-95 [6]: did not block; loss of synaptophysin [6]: blocked; up-regulation of IL-1β [6]: did not block; up-regulation of S100B [6]: blocked; loss of PSD-95 ([6]; listed as MW01-2-057WH): no significant effect
c1ccc(-c2cc(-c3ccncc3)c(NCC3CC3)nn2)cc1 [MW01-7-084WH, N-(cyclopropylmethyl)-6-phenyl-4-(pyridin-4-yl)pyridazin-3-amine]	does not suppress	not inhibited	Concentration dependent inhibition	does not suppress	selective	prevention of Y-maze behavioral deficit [5]: trend toward preventing; loss of PSD-95 [6]: prevented; loss of synaptophysin [6]: not as effective as MW01-2-151SRM; up-regulation of IL-1β [6]: blocked; up-regulation of S100B [6]: blocked
CN1CCN(c2nnc(-c3ccccc3)cc2-c2ccncc2)CC1 [MW01-7-085WH, 3-(4-methylpiperazin-1-yl)-6-phenyl-4-(pyridin-4-yl)pyridazine]	does not suppress	not inhibited	Concentration dependent inhibition	does not suppress	selective	prevention of Y-maze behavioral deficit [5]: trend toward preventing; loss of PSD-95 [6]: prevented; loss of synaptophysin [6]: not as effective as MW01-2-151SRM; up-regulation of IL-1β [6]: blocked; up-regulation of S100B [6]: blocked
c1ccc(-c2cc(N3CCCCC3)c(N3CCN(c4ncccn4)CC3)nn2)cc1 [MW01-7-107WH, 2-(4-(6-phenyl-4-(piperidin-1-yl)pyridazin-3-yl)piperazin-1-yl)pyrimidine]	also inhibited	also inhibited	Concentration dependent inhibition	also inhibited	nonselective	
c1ccc(-c2cc(-c3ccccc3)c(N3CCNCC3)nn2)cc1 [MW01-7-133WH, 4,6-diphenyl-3-piperazinylpyridazine]	does not suppress	not inhibited	Concentration dependent inhibition	does not suppress	selective	
CC(C)NCC(O)c1ccc(NS(C)(=O)=O)cc1 (stereo not shown) [sotalol, reference compound]						QTc interval prolongation [7]: caused significant prolongation; also recorded: significant increase
